# Marks after values point to notes of the source that are not given here.
# How the values were obtained:
# MDA-MB-436 = assay: In vitro anti-proliferation (Cell Titre-Glo), MDA-MB-436; assay type: cell-based; settings: Homo sapiens; MDA-MB-436, breast; 96 hours of incubation; mono-treatment
# Description: (§1) Tumor cells (Table 1) were propagated in a humidified 37° C. incubator in their respective growth medium supplemented 10% fetal calf serum. […] Test compounds were added to the wells using a Tecan-HP Digital Dispenser. After 96 hours of incubation cell viability was assessed with the Cell Titre-Glo Luminescent Cell Viability Assay (Promega).
# IGR-OV-1 = assay: In vitro anti-proliferation (Cell Titre-Glo), IGR-OV-1; assay type: cell-based; settings: Homo sapiens, IGROV-1; IGR-OV-1, ovary; 96 hours of incubation; mono-treatment
# Description: as §1
# HT-144 = assay: In vitro anti-proliferation (Cell Titre-Glo), HT-144; assay type: cell-based; settings: Homo sapiens; HT-144, melanoma; 96 hours of incubation; mono-treatment
# Description: as §1
# NCI-H460 = assay: In vitro anti-proliferation (Cell Titre-Glo), NCI-H460; assay type: cell-based; settings: Homo sapiens; NCI-H460, lung; 96 hours of incubation; mono-treatment
# Description: as §1
# [1] = test system: human 22Rv1 prostate cancer xenograft; assay: 22Rv1 prostate cancer xenograft model; assay type: in vivo, mice
# Description: (§2) The oral and intraperitoneal application volume was 10 ml/kg. The time interval between two applications per day was 6-7 h. […] Changes in the body weight were a measure of treatment-related toxicity (>10%=critical, stop of treatment until recovery, >20%=toxic, termination). The tumor area was detected by means of an electronic caliper gauge [length (mm)×width (mm)]. In vivo anti-tumor efficacy is presented as T/C ratio (Treatment/Control) calculated with tumor areas at study end by the formula [(tumor area of treatment group at day x)−(tumor area of treatment group at day before first treatment)]/[(tumor area control group at day x)−(tumor area of control group at day before first treatment)]. […] Statistical analysis was assessed using SigmaStat software. A one-way analysis of variance was performed and differences to the control were compared by a pair-wise comparison procedure (Dunn's method).
# [2] = test system: human MDA-MB-436 breast cancer xenograft; assay: MDA-MB-436 breast cancer xenograft model; assay type: in vivo, mice
# Description: as §2
structure (smiles),measurement,setting,value
"O=C(c1cc(Cc2n[nH]c(=O)c3ccccc23)ccc1F)N1CCN(C(=O)C2CC2)CC1 [Compound B, Olaparib]",IC50,MDA-MB-436,6.5 µM
same,IC50,IGR-OV-1,22 µM
same,IC50,HT-144,23 µM
same,IC50,NCI-H460,28 µM
same,anti-tumor efficacy,"[1]; 22Rv1 prostate cancer model, result in words",no anti-tumor efficacy
same,Max. weight loss (%),"[1]; body weight vs start of treatment, Compound A 20 mg/kg 2QD p.o. 3 on/4 off, Compound B 20 mg/kg QD i.p.",−3%
same,T/C,"[1]; tumor area at study end, male Fox Chase SCID mice, Compound A 20 mg/kg 2QD p.o. 3 on/4 off, Compound B 20 mg/kg QD i.p.",1.18
same,anti-tumor efficacy,"[2]; MDA-MB-436 human breast cancer model, result in words",good anti-tumor efficacy
same,Max. weight loss (%),"[2]; body weight vs start of treatment, Compound A 20 mg/kg 2QD p.o. 3 on/4 off, Compound B 50 mg/kg QD i.p.",−3%
same,T/C,"[2]; tumor area at study end, NOD/Scid mice, Compound A 20 mg/kg 2QD p.o. 3 on/4 off, Compound B 50 mg/kg QD i.p.",0.29^*

# From patent publication US11660301B2, “Combination of ATR kinase inhibitors with PARP inhibitors” (Bayer Pharma Aktiengesellschaft, priority 2017, dated 2023)
